# Experimental data reported in publication PMC9924227, “IFITM proteins assist cellular uptake of diverse linked chemotypes” (Science (New York, N.Y.), 2022).
# Read-outs that look alike come from different tables or passages of the source.
# Key:
# Test in all cases: cells
# K562 = system: T1, K562; design: dose-response cell viability assay in K562 CRISPRi/CRISPRa CML cells, IC50; details: Homo sapiens, read-out: Cell viability IC50 (nM) / No sgRNA
# T1 construct: engineered with CRISPRi or CRISPRa machinery, no sgRNA
# Excerpt: To further examine the breadth of linked chemotypes that might be assisted by IFITMs, we designed, synthesized, and characterized a new linked molecular glue inhibitor based on the natural product rocaglamide. Rocaglamide clamps the EIF4A1 helicase to 5’ untranslated regions (UTRs) of target mRNAs to inhibit the translation of downstream sequences ([64]). […] We reasoned that dimerization of rocaglamide through its amide position could be a chemically tractable means to simultaneously engage two proximal EIF4A1-RNA complexes within the cell. We designed a molecule, BisRoc-1 (fig. S9B), that links two rocaglamide monomers together with a linker length (35 heavy atoms) exceeding the distance separating two rocaglamide binding sites in the crystal structure (fig. S9A). […] Additionally, we evaluated the relationship between linker length and IFITM assistance by examining an analog series consisting of BisRoc-1 (PEG11), BisRoc-2 (PEG4), BisRoc-3 (PEG2), and rocaglamide (no linker) (fig. S9E). We treated our K562 CRISPRi and CRISPRa cells with these inhibitors and evaluated differences in potency resulting from IFITM expression modulation, as measured by half-maximal inhibitory concentration (IC50) shift in a cell viability assay (fig. S9, E and F, and data file S7). […] Given the ubiquitous presence of IFITMs in cells, we hypothesized that the cellular uptake of other linked inhibitors in the literature could also be assisted by IFITMs. While not generally as large as the linked chemotypes described above, PROTACs are likewise composed of two chemical entities covalently attached by a flexible tether ([16]). Thus, we included four PROTACs (GMB-475, MZ1, BETd-260, and dBET6) and their non-linked parent inhibitors in an expanded survey of chemical-genetic interactions with IFITMs (Fig. 4A, fig. S10, and table S1). These compounds were evaluated in the same IFITM dependency analysis as the BisRoc linker series (Fig. 4B and data file S7). Using RapaLink-1 as a chemical benchmark, we observed that IFITM1, IFITM2, and IFITM3 overexpression sensitized cells to linked chemotypes (Fig. 4B; compounds 9-17). The inverse finding, resistance to linked chemotypes, resulted from gene knockdown (Fig. 4B). The trend observed in the BisRoc series was corroborated across the 9 bivalent molecules tested (Fig. 4B): the magnitudes of chemical-genetic interactions correlated with linker length which is reflected in inhibitor size (molecular weight) and flexibility (number of rotatable bonds). Linked chemotypes with long linkers were more IFITM-assisted than linked chemotypes with short linkers, and non-linked chemotypes (Fig. 4B; compounds 1-8) were not observed to be assisted by IFITMs (Fig. 4B). Despite their cellular activities, the physicochemical properties of the linked chemotypes largely violate Lipinski’s ([1]) and Veber’s ([2]) classic guidelines (Fig. 4, A to C, and table S1), raising the need for a revised drug design framework that considers IFITM-assisted uptake and other cellular import processes.  Fig. 4. IFITMs assist the cellular activity of diverse linked chemotypes. (A) Heavy atom skeletons of compounds assessed for IFITM assistance (see also fig. S10 for chemical structures). Compounds were categorized as non-linked chemotypes (compounds 1–8, black), linked chemotypes with short linkers (compounds 9–14, gray), or linked chemotypes with long linkers (compounds 15–17, green). (B) Chemical-genetic interaction map of inhibitors in (A) with IFITM1, IFTM2, and IFITM3. Potency, as measured by dose-response IC50 in a cell viability assay (see also Fig. 1F, Fig. 3D, or fig. S9D for example source data), was normalized to that of non-sgRNA-expressing K562 CRISPRi or CRISPRa cells. Physicochemical properties, including molecular weight (MW) and number of rotatable bonds, with their respective traditional thresholds for drug-likeness are indicated (right). Data represent means of three biological replicates. […]
# K562 CRISPRa = system: K562 CRISPRa; design: Cell viability dose-response in K562 CRISPRi/CRISPRa cells; IC50 from fitted curve; details: Homo sapiens; sheet K562 CRISPRa IC50;; non-targeting control sgRNA; read-out: Cell viability IC50 (nM) / NegCtrl sg
# Excerpt: (§1) To further examine the breadth of linked chemotypes that might be assisted by IFITMs, we designed, synthesized, and characterized a new linked molecular glue inhibitor based on the natural product rocaglamide. Rocaglamide clamps the EIF4A1 helicase to 5’ untranslated regions (UTRs) of target mRNAs to inhibit the translation of downstream sequences ([64]). […] We reasoned that dimerization of rocaglamide through its amide position could be a chemically tractable means to simultaneously engage two proximal EIF4A1-RNA complexes within the cell. We designed a molecule, BisRoc-1 (fig. S9B), that links two rocaglamide monomers together with a linker length (35 heavy atoms) exceeding the distance separating two rocaglamide binding sites in the crystal structure (fig. S9A). […] Additionally, we evaluated the relationship between linker length and IFITM assistance by examining an analog series consisting of BisRoc-1 (PEG11), BisRoc-2 (PEG4), BisRoc-3 (PEG2), and rocaglamide (no linker) (fig. S9E). We treated our K562 CRISPRi and CRISPRa cells with these inhibitors and evaluated differences in potency resulting from IFITM expression modulation, as measured by half-maximal inhibitory concentration (IC50) shift in a cell viability assay (fig. S9, E and F, and data file S7). […] IFITMs assist the cellular activity of diverse linked chemotypes. (A) Heavy atom skeletons of compounds assessed for IFITM assistance (see also fig. S10 for chemical structures). Compounds were categorized as non-linked chemotypes (compounds 1–8, black), linked chemotypes with short linkers (compounds 9–14, gray), or linked chemotypes with long linkers (compounds 15–17, green). (B) Chemical-genetic interaction map of inhibitors in (A) with IFITM1, IFTM2, and IFITM3. Potency, as measured by dose-response IC50 in a cell viability assay (see also Fig. 1F, Fig. 3D, or fig. S9D for example source data), was normalized to that of non-sgRNA-expressing K562 CRISPRi or CRISPRa cells. Physicochemical properties, including molecular weight (MW) and number of rotatable bonds, with their respective traditional thresholds for drug-likeness are indicated (right). Data represent means of three biological replicates. (C) Map of chemical space populated by 304 kinase inhibitors in clinical development (black), 3270 PROTACs reported in the literature (gray), and 3 linked chemotypes described herein (green). Boundaries represent traditional guidelines for drug-likeness.
# K562 CRISPRi = system: K562 CRISPRi; design: Cell viability dose-response in K562 CRISPRi/CRISPRa cells; IC50 from fitted curve; details: Homo sapiens, non-targeting control sgRNA, read-out: Cell viability IC50 (nM) / NegCtrl sg
# Excerpt: as §1
# [1] = sheet K562 CRISPRa IC50, no sgRNA
Structure (SMILES),IC50 (K562; [1]) [nM],"IC50 (K562; Cells=K562 CRISPRi, no sgRNA) [nM]",IC50 (K562 CRISPRa) [nM],IC50 (K562 CRISPRi) [nM]
CCn1nc(C2CC2)cc1Nc1nc(C(=O)NCCCCCc2cccc3c2CN(C2CCC(=O)NC2=O)C3=O)nc2[nH]c3cc(-c4c(C)noc4C)c(OC)cc3c12 (centres unmarked) [BETd-260],1.15,3.79,1.04,3.88
Cc1ncsc1-c1ccc(CNC(=O)[C@@H]2C[C@@H](O)CN2C(=O)[C@@H](NC(=O)COCCOc2ccc(-c3cc(Nc4ccc(OC(F)(F)F)cc4)ncn3)cc2)C(C)(C)C)cc1 [GMB-475],212,264,179,249
NC(=O)c1cccc(-c2cc(Nc3ccc(OC(F)(F)F)cc3)ncn2)c1 [GNF-2],202,291,205,284
Cc1ncsc1-c1ccc(CNC(=O)[C@@H]2C[C@@H](O)CN2C(=O)[C@@H](NC(=O)COCCOCCOCCNC(=O)C[C@@H]2N=C(c3ccc(Cl)cc3)c3c(sc(C)c3C)-n3c(C)nnc32)C(C)(C)C)cc1 [MZ1],31.4,135,33.3,146
CO[C@@H]1C[C@@H]2CC[C@@H](C)[C@@](O)(O2)C(=O)C(=O)N2CCCC[C@@H]2C(=O)O[C@H]([C@H](C)C[C@H]2CC[C@H](OCCOCc3cn(CCOCCOCCOCCOCCOCCOCCOCCOCCC(=O)NCCCCn4nc(-c5ccc6oc(N)nc6c5)c5c(N)ncnc54)nn3)[C@H](OC)C2)CC(=O)[C@H](C)/C=C(/C)[C@H](O)[C@@H](OC)C(=O)[C@H](C)C[C@H](C)\C=C/C=C\C=C/1C (stereo in doubt) [RapaLink-1],2.23,1.19,2.07,1.25
CCn1nc(C2CC2)cc1Nc1nc(C(=O)NC)nc2[nH]c3cc(-c4c(C)noc4C)c(OC)cc3c12 [HJB97],11.6,46.8,9.74,41.5
Cc1sc2c(c1C)C(c1ccc(Cl)cc1)=N[C@@H](CC(=O)OC(C)(C)C)c1nnc(C)n1-2 [JQ1],24.4,118,22.2,121
Cc1sc2c(c1C)C(c1ccc(Cl)cc1)=N[C@@H](CC(=O)NCCCCCCCCNC(=O)COc1cccc3c1C(=O)N(C1CCC(=O)NC1=O)C3=O)c1nnc(C)n1-2 (some centres unmarked) [dBET6],3.26,11.7,3.04,12.6
COc1ccc([C@@]23Oc4cc(OC)cc(OC)c4[C@]2(O)[C@H](O)[C@H](C(=O)N(C)C)[C@H]3c2ccccc2)cc1 [Rocaglamide],7.65,7.23,6.97,6.86
CC(C)n1nc(-c2ccc3oc(N)nc3c2)c2c(N)ncnc21 [Sapanisertib],14.2,24.6,15.3,24.4
CO[C@H]1C[C@@H]2CC[C@@H](C)[C@@](O)(O2)C(=O)C(=O)N2CCCC[C@H]2C(=O)O[C@H]([C@H](C)C[C@@H]2CC[C@@H](O)[C@H](OC)C2)CC(=O)[C@H](C)/C=C(\C)[C@@H](O)[C@@H](OC)C(=O)[C@H](C)C[C@H](C)/C=C/C=C/C=C/1C [Rapamycin],0.356,0.743,0.376,0.776
